Measurements reported in patent US20090062243A1, “Lupane-Type Triterpenoids Modified at 30-Position and Analogues Thereof” (ADVANCED LIFE SCIENCES, INC., priority 2007, published 2009).

Each molecule was assayed on HT-29 (colon carcinoma) (assay: MTS cell viability assay, HT-29). Details: Homo sapiens, HT-29, cells incubated 72 h.
Type: cell-based
Method: (§1) Cells were plated, the evening before treatment, for each treatment on 96-well plates (1×10^4 cells/well) in 100 μL volume per well. Analog solutions were prepared by diluting each test compound in DSMO (10 mM) with the appropriate cell growth media for each individual cell line, or in “Universal Media” if several cell lines were to be assayed in parallel, immediately prior to cell treatment. Universal Media consisted of 5 mL sodium pyruvate (100× liquid stock, MediaTech), 5 mL glucose (100×, 45% liquid stock, MediaTech), 5 mL Penicillin/Streptomycin (100× liquid stock, MediaTech), 10 mL sodium bicarbonate (50× liquid stock, MediaTech), 25 mL Fetal Calf Serum, 1.25 mL insulin (4 mg/mL, Gibco) and […] RPMI media with 2 mM L-glutamine for a total volume of 500 mL.
(§2) Cells were treated by aspirating plating media from each well and adding 80 μL of betulinic acid (control) or each analog solution in serial dilutions to the adherent cells. All treatments were performed in triplicate. Growth media (80 μL) was added to 3 blank wells (no cells) to measure background from the growth media. Growth media alone (no DMSO or test compound) was added to 3 wells containing cells to measure the baseline MTS activity. Vehicle (DMSO) control in serial dilutions, added to cells, was also included to monitor basal toxicity from DMSO. Cells were incubated at 37° C. for 72 h, or 120 h for the OVCAR cell lines. MTS reagent (per 96-well plate) were prepared by combining 2 mL of MTS working solution (Cell Titer AQueous Non-Radioactive Cell Proliferation Assay, Promega, cat#G1112), 100 μL of 0.92 mg/mL phenazine methosulfate/Dulbecco's PBS and 2.1 mL growth media. MTS reagent (40 μL) were added to each well and incubated at 37° C. for 1.5 to 4 h. Plates were gently shaken by hand until solution in each well appeared homogenous. Absorbances at 490 nm were measured on a Wallac Victor II plate reader at multiple time points following the addition of MTS reagent for each plate. Triplicate absorbance (490 nm) measurements were averaged following background (no cell) subtraction for each drug concentration. Percent Cell Viability was calculated for each drug concentration using the following equation:
(§3) {[Absorbance(analog treated)]/[Absorbance(DMSO treated)]}×100%
(§4) Cytotoxicity dose response for the triterpenoid derivatives synthesized in SK-MEL-2 (melanoma), A-375 (melanoma), Daoy (glioblastoma), LN-229 (glioblastoma), OVCAR-3 (ovarian carcinoma), HT-29 (colon carcinoma), MCF-7 (breast carcinoma) cell lines using the standard MTS assay is summarized in Table 1. In Table 1, compounds 22a-d and compounds 23a-c refer to structures 22 and 23 in Scheme 5, respectively. Compounds 24aa-an and 24ba-bq refer to structure 24 in Scheme 6. Compounds 26a-e refer to structure 26 in Scheme 6. Compounds 36a-c refer to structure 36 in Scheme 10.

| Compound | IC50 |
| --- | --- |
| C=C(C(OC)OC)[C@@H]1CC[C@]2(CO)CC[C@]3(C)[C@H](CC[C@@H]4[C@@]5(C)CCC(=O)C(C)(C)[C@@H]5CC[C@]43C)[C@@H]12 [Compound 10] | 15 µM |
| C=C(CO)[C@@H]1CC[C@]2(COC3CCCCO3)CC[C@]3(C)[C@H](CC[C@@H]4[C@@]5(C)C=CC(=O)C(C)(C)[C@@H]5CC[C@]43C)[C@@H]12 (stereo partly shown) [Compound 28] | 19 µM |
| C=C(C=O)[C@@H]1CC[C@]2(COC3CCCCO3)CC[C@]3(C)[C@H](CC[C@@H]4[C@@]5(C)CCC(=O)C(C)(C)[C@@H]5CC[C@]43C)[C@@H]12 (stereo partly shown) [Compound 9a] | 9 µM |

Each molecule was assayed on MCF-7 (breast carcinoma) (assay: MTS cell viability assay, MCF-7). Details: Homo sapiens, MCF7, cells incubated 72 h.
Type: cell-based
Method: as §1, §2, §3, §4

| Compound | IC50 |
| --- | --- |
| C=C(C(OC)OC)[C@@H]1CC[C@]2(CO)CC[C@]3(C)[C@H](CC[C@@H]4[C@@]5(C)CCC(=O)C(C)(C)[C@@H]5CC[C@]43C)[C@@H]12 [Compound 10] | 17 µM |
| C=C(CO)[C@@H]1CC[C@]2(COC3CCCCO3)CC[C@]3(C)[C@H](CC[C@@H]4[C@@]5(C)C=CC(=O)C(C)(C)[C@@H]5CC[C@]43C)[C@@H]12 (stereo partly shown) [Compound 28] | 5 µM |
| C=C(C=O)[C@@H]1CC[C@]2(COC3CCCCO3)CC[C@]3(C)[C@H](CC[C@@H]4[C@@]5(C)CCC(=O)C(C)(C)[C@@H]5CC[C@]43C)[C@@H]12 (stereo partly shown) [Compound 9a] | 32 µM |

What follows are molecules tested on Daoy (assay: MTS cell viability assay, Daoy). Details: Homo sapiens, Daoy, cells incubated 72 h.
Type: cell-based
Method: as §1, §2, §3, §4

| Compound | IC50 |
| --- | --- |
| C=C(C(OC)OC)[C@@H]1CC[C@]2(CO)CC[C@]3(C)[C@H](CC[C@@H]4[C@@]5(C)CCC(=O)C(C)(C)[C@@H]5CC[C@]43C)[C@@H]12 [Compound 10] | 17 µM |
| C=C(CO)[C@@H]1CC[C@]2(COC3CCCCO3)CC[C@]3(C)[C@H](CC[C@@H]4[C@@]5(C)C=CC(=O)C(C)(C)[C@@H]5CC[C@]43C)[C@@H]12 (stereo partly shown) [Compound 28] | 16 µM |
| C=C(C=O)[C@@H]1CC[C@]2(COC3CCCCO3)CC[C@]3(C)[C@H](CC[C@@H]4[C@@]5(C)CCC(=O)C(C)(C)[C@@H]5CC[C@]43C)[C@@H]12 (stereo partly shown) [Compound 9a] | 7 µM |

Each molecule was assayed on OVCAR-3 (ovarian carcinoma) (assay: MTS cell viability assay, OVCAR-3). Details: Homo sapiens, OVCAR-3, 120 h for the OVCAR cell lines.
Type: cell-based
Method: as §1, §2, §3, §4

| Compound | IC50 |
| --- | --- |
| C=C(C(OC)OC)[C@@H]1CC[C@]2(CO)CC[C@]3(C)[C@H](CC[C@@H]4[C@@]5(C)CCC(=O)C(C)(C)[C@@H]5CC[C@]43C)[C@@H]12 [Compound 10] | 45 µM |
| C=C(CO)[C@@H]1CC[C@]2(COC3CCCCO3)CC[C@]3(C)[C@H](CC[C@@H]4[C@@]5(C)C=CC(=O)C(C)(C)[C@@H]5CC[C@]43C)[C@@H]12 (stereo partly shown) [Compound 28] | 30 µM |
| C=C(C=O)[C@@H]1CC[C@]2(COC3CCCCO3)CC[C@]3(C)[C@H](CC[C@@H]4[C@@]5(C)CCC(=O)C(C)(C)[C@@H]5CC[C@]43C)[C@@H]12 (stereo partly shown) [Compound 9a] | 9 µM |

These molecules were tested on A-375 (melanoma) (assay: MTS cell viability assay, A-375). Details: Homo sapiens, A-375, cells incubated 72 h.
Type: cell-based
Method: as §1, §2, §3, §4

| Compound | IC50 |
| --- | --- |
| C=C(C(OC)OC)[C@@H]1CC[C@]2(CO)CC[C@]3(C)[C@H](CC[C@@H]4[C@@]5(C)CCC(=O)C(C)(C)[C@@H]5CC[C@]43C)[C@@H]12 [Compound 10] | 7 µM |
| C=C(CO)[C@@H]1CC[C@]2(COC3CCCCO3)CC[C@]3(C)[C@H](CC[C@@H]4[C@@]5(C)C=CC(=O)C(C)(C)[C@@H]5CC[C@]43C)[C@@H]12 (stereo partly shown) [Compound 28] | 18 µM |
| C=C(C=O)[C@@H]1CC[C@]2(COC3CCCCO3)CC[C@]3(C)[C@H](CC[C@@H]4[C@@]5(C)CCC(=O)C(C)(C)[C@@H]5CC[C@]43C)[C@@H]12 (stereo partly shown) [Compound 9a] | < 3 µM |

Each molecule was assayed on SK-MEL-2 (melanoma) (assay: MTS cell viability assay, SK-MEL-2). Details: Homo sapiens, SK-MEL-2, cells incubated 72 h.
Type: cell-based
Method: as §1, §2, §3, §4

| Compound | IC50 |
| --- | --- |
| C=C(C(OC)OC)[C@@H]1CC[C@]2(CO)CC[C@]3(C)[C@H](CC[C@@H]4[C@@]5(C)CCC(=O)C(C)(C)[C@@H]5CC[C@]43C)[C@@H]12 [Compound 10] | 17 µM |
| C=C(CO)[C@@H]1CC[C@]2(COC3CCCCO3)CC[C@]3(C)[C@H](CC[C@@H]4[C@@]5(C)C=CC(=O)C(C)(C)[C@@H]5CC[C@]43C)[C@@H]12 (stereo partly shown) [Compound 28] | 19 µM |
| C=C(C=O)[C@@H]1CC[C@]2(COC3CCCCO3)CC[C@]3(C)[C@H](CC[C@@H]4[C@@]5(C)CCC(=O)C(C)(C)[C@@H]5CC[C@]43C)[C@@H]12 (stereo partly shown) [Compound 9a] | 7 µM |

The molecules below were run on LN-229 (glioblastoma) (assay: MTS cell viability assay, LN-229). Details: Homo sapiens, LN-229, cells incubated 72 h.
Type: cell-based
Method: as §1, §2, §3, §4

| Compound | IC50 |
| --- | --- |
| C=C(C(OC)OC)[C@@H]1CC[C@]2(CO)CC[C@]3(C)[C@H](CC[C@@H]4[C@@]5(C)CCC(=O)C(C)(C)[C@@H]5CC[C@]43C)[C@@H]12 [Compound 10] | 24 µM |
